{
  "source": "paper PMC5826917",
  "about": "“A small molecule inhibitor of Nicotinamide N-methyltransferase for the treatment of metabolic disorders” (Scientific Reports, 2018)",
  "key": {"[1]": {"biological_target": "Dopamine Receptor 2 Short (D2S) (Homo sapiens, UniProt P14416)", "sequence (P14416 1-414 isoform P14416-2)": "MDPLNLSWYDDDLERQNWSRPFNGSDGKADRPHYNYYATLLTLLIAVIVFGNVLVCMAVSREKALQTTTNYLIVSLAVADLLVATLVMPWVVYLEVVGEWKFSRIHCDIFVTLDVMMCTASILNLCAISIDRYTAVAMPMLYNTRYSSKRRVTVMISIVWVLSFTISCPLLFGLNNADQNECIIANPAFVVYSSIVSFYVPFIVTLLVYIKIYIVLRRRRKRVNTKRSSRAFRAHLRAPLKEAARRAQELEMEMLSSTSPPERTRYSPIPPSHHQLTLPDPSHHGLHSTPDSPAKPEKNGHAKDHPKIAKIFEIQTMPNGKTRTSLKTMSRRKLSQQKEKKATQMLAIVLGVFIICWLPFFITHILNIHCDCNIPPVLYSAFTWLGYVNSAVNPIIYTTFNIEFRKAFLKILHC", "assay": "Selectivity panel: D2S", "assay_type": "cell-based", "method": "(§1) Supplement 41598_2018_22081_MOESM1_ESM.docx, table 2: Supplementary table 2: Selectivity profile of JBSNF-000088 (at 10 µM) vs a panel of 34 receptors, channels and enzymes. | column: E% (agonistic); I% (antagonistic or inhibitory)"}, "[2]": {"biological_target": "Histamine Receptor 2 (H2) (Homo sapiens, UniProt P25021)", "sequence (P25021 whole entry)": "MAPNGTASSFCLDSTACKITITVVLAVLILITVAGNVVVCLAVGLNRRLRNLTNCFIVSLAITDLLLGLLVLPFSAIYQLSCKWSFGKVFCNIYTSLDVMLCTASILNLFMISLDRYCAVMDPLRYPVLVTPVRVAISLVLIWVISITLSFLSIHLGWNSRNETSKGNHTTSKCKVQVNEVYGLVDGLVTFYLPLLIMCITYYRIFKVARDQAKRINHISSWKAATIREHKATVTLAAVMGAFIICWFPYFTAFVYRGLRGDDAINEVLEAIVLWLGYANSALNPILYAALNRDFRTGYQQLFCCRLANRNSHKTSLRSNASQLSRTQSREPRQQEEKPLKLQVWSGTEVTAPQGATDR", "assay": "Selectivity panel: H2", "assay_type": "cell-based"}, "cytochrome P450 enzymes": {"test_system": "cytochrome P450 enzymes", "details": "20 µM"}, "[3]": {"test_system": "endogenous NNMT activity in U2OS cells", "assay": "Cell based U2OS assay (MNA levels by LC-MS/MS)", "details": "Homo sapiens, 24 h treatment", "method": "(§2) PE-Sciex API-4000 triple quadrupole (PerkinElmerSciex Instruments, Boston, MA) mass spectrometer was employed for this analysis. […] Detection of the ions was performed in the multiple reaction monitoring (MRM) mode, monitoring the transition of the m/z 137 precursor ion to the m/z 92 product ion for MNA and m/z 141 precursor ion to the m/z 84 product ion for d4-MNA (internal standard).\n(§3) The supernatant was separated and transferred to pre-labeled HPLC vials and analyzed by LC-MS/MS system."}, "[4]": {"test_system": "endogenous NNMT activity in differentiated 3T3L1 cells", "assay": "Cell based 3T3L1 assay (MNA levels by LC-MS/MS)", "set-up": "species or system mouse", "method": "as §2, §3"}, "[5]": {"biological_target": "Serotonin receptor 2B (5HT2B (Homo sapiens, UniProt P41595))", "sequence (P41595 whole entry)": "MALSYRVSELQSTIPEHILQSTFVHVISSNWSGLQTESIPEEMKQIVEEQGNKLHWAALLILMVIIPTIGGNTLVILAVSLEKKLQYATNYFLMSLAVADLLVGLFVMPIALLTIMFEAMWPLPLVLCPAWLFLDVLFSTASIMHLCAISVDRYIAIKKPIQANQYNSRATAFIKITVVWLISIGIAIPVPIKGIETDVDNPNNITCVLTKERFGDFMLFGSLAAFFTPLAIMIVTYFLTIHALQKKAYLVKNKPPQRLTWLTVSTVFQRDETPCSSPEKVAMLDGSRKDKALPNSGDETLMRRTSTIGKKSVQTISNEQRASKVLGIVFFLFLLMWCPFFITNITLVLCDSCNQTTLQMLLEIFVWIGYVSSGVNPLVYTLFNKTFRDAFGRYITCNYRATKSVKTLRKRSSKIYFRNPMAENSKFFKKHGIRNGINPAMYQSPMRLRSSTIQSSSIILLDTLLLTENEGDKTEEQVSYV", "assay": "Selectivity panel: 5HT2B", "assay_type": "cell-based", "method": "as §1"}, "[6]": {"details": "0.5 h"}, "[7]": {"biological_target": "Muscarinic Receptor 3 (CHRM3) (Homo sapiens, UniProt P20309)", "sequence (P20309 whole entry)": "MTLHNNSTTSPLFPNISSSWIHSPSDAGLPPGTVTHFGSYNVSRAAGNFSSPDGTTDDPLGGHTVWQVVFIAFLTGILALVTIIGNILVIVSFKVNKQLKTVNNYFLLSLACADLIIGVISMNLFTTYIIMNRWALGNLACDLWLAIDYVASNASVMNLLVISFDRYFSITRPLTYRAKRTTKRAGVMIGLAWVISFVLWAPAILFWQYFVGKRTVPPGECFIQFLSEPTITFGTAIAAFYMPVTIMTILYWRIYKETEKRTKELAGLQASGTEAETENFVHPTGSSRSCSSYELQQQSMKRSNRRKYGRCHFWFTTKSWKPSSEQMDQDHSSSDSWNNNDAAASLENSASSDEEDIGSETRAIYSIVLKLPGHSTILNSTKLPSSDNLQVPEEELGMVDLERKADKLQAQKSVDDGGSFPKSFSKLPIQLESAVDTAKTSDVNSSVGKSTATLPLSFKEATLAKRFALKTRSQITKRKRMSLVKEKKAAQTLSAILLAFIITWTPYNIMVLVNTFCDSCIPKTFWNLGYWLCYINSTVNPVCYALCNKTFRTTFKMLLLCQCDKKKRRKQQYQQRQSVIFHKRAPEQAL", "assay": "Selectivity panel: CHRM3", "assay_type": "cell-based", "method": "as §1"}, "[8]": {"biological_target": "Adrenoreceptor beta 2 (ADRB2) (Homo sapiens, UniProt P07550)", "sequence (P07550 whole entry)": "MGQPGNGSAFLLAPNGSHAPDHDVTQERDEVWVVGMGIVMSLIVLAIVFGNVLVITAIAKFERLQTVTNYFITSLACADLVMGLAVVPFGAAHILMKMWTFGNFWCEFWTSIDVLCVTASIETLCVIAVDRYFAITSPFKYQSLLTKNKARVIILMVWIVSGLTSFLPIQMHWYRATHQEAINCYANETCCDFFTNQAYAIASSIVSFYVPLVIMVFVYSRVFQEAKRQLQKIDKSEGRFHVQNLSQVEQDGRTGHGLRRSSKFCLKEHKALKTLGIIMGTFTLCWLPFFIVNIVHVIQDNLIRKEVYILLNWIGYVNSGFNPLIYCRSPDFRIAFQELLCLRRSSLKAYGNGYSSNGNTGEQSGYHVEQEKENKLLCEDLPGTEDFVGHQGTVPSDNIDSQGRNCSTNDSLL", "assay": "Selectivity panel: ADRB2", "assay_type": "cell-based"}, "[9]": {"biological_target": "Opioid Receptor mu (OPRM1) (Homo sapiens, UniProt P35372)", "sequence (P35372 whole entry)": "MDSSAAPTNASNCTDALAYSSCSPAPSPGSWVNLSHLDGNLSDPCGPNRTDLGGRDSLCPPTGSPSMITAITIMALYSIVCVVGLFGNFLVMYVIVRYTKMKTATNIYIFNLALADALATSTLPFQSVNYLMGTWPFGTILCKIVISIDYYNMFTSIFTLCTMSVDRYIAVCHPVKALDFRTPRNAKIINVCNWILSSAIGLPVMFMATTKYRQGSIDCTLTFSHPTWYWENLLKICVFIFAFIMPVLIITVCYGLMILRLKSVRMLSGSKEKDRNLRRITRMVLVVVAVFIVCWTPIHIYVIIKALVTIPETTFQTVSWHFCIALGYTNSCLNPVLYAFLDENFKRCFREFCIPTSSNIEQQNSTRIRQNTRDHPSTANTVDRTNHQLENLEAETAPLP", "assay": "Selectivity panel: OPRM1", "assay_type": "cell-based", "method": "as §1"}, "in vitro [10]": {"assay": "in vitro", "details": "mouse, microsomes, Metabolic stability mouse microsomes (% remaining)"}, "in vitro [11]": {"assay": "in vitro", "details": "human, hepatocytes"}, "human NNMT": {"test_system": "human NNMT", "assay": "Thermal shift assay, human NNMT", "assay_type": "binding", "details": "in presence of SAM, molar ratio enzyme:SAM:compound ~1:5:10", "method": "Thermal shift assay experiments were carried out as described previously."}, "[12]": {"biological_target": "Serotonin Receptor 2A (5HT2A) (Homo sapiens, UniProt P28223)", "sequence (P28223 whole entry)": "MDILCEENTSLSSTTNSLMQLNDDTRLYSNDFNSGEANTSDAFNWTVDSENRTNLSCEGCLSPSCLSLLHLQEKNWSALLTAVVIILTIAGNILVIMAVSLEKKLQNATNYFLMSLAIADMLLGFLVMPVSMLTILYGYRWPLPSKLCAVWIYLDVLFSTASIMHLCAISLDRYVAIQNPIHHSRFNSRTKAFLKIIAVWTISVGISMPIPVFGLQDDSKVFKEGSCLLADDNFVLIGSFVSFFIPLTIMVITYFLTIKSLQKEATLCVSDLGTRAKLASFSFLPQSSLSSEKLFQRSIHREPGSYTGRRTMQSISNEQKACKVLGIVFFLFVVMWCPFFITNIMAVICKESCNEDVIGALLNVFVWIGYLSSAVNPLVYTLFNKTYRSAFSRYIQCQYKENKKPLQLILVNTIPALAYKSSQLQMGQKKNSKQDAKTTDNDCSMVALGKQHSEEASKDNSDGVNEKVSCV", "assay": "Selectivity panel: 5HT2A", "assay_type": "cell-based", "method": "as §1"}, "[13]": {"biological_target": "Acetylcholinesterase (AChE) (Homo sapiens, UniProt P22303)", "sequence (P22303 32-614)": "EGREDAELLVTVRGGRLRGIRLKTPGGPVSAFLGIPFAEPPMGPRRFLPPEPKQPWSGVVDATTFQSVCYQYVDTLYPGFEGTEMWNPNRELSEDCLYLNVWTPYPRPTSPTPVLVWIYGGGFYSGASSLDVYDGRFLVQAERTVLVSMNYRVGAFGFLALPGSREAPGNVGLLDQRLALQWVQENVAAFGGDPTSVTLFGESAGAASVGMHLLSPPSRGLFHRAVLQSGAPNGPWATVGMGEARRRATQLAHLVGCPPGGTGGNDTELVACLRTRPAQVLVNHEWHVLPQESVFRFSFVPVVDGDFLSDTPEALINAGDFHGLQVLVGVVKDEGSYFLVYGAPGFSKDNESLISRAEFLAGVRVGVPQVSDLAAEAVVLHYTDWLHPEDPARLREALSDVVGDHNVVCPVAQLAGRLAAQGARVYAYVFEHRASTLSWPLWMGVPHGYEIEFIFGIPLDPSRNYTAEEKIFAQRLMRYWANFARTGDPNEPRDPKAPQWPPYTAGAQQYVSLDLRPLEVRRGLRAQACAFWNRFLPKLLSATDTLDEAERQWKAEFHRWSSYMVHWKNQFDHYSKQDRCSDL", "assay": "Selectivity panel: AChE", "assay_type": "biochemical", "details": "read-out: I% (antagonistic or inhibitory), AChE", "method": "Supplement 41598_2018_22081_MOESM1_ESM.docx, table 2: Supplementary table 2: Selectivity profile of JBSNF-000088 (at 10 µM) vs a panel of 34 receptors, channels and enzymes. | column: I% (antagonistic or inhibitory)"}, "in vivo": {"assay": "in vivo", "details": "C57BL/6, mouse"}, "SK+Ca channel-": {"test_system": "SK+Ca channel-", "assay": "Selectivity panel: SK+Ca channel", "assay_type": "binding", "details": "10 µM"}, "plasma MNA levels": {"test_system": "plasma MNA levels", "method": "Samples for MNA were analyzed employing a fit-for-purpose LC-MS/MS method. PE-Sciex API-4000 triple quadrupole (PerkinElmerSciex Instruments, Boston, MA) mass spectrometer was employed for this analysis. Samples (5 µL) were injected onto Kinetex HILIC (50 × 4.6 mm, 2.6 µm; Phenomenex, Torrance, CA, USA) column connected to Shimadzu VP (Shimadzu, Japan) LC system. The gradient mobile phase mixture of 0.2% formic acid and acetonitrile was delivered at a flow rate of 0.45 ml min-1 into the mass spectrometer electrospray ionization (ESI) chamber. Quantitation was achieved by MS/MS detection in positive ion mode for MNA and internal standard (d4–MNA). Detection of the ions was performed in the multiple reaction monitoring (MRM) mode, monitoring the transition of the m/z 137 precursor ion to the m/z 92 product ion for MNA and m/z 141 precursor ion to the m/z 84 product ion for d4-MNA (internal standard).\nA simple protein precipitation extraction method was followed for extraction of N-methylnicotinamide from plasma and various tissue homogenate samples. The tissue samples were homogenized with 1:3 proportions of phosphate buffer saline (PBS) and this homogenate was used for N-Methylnicotinamide determinations. […] The supernatant was separated and transferred to pre-labeled HPLC vials and analyzed by LC-MS/MS system."}, "[14]": {"details": "C57BL/6, mouse, in vivo, iv"}, "[15]": {"biological_target": "Muscarinic Receptor 2 (CHRM2) (Homo sapiens, UniProt P08172)", "sequence (P08172 whole entry)": "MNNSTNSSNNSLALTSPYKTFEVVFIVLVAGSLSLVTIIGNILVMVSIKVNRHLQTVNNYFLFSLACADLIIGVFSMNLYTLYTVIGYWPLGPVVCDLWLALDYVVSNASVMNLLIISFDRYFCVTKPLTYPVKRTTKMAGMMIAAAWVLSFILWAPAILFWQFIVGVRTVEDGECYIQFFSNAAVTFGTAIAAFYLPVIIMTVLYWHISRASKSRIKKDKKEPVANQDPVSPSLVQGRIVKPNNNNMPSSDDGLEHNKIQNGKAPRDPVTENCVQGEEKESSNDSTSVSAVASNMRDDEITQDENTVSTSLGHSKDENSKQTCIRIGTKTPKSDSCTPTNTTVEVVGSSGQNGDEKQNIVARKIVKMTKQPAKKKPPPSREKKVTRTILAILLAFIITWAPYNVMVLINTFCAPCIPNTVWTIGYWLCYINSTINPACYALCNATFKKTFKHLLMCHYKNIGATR", "assay": "Selectivity panel: CHRM2", "assay_type": "cell-based", "method": "as §1"}, "[16]": {"biological_target": "Adenosine Receptor 2A (ADORA2A) (Homo sapiens, UniProt P29274)", "sequence (P29274 whole entry)": "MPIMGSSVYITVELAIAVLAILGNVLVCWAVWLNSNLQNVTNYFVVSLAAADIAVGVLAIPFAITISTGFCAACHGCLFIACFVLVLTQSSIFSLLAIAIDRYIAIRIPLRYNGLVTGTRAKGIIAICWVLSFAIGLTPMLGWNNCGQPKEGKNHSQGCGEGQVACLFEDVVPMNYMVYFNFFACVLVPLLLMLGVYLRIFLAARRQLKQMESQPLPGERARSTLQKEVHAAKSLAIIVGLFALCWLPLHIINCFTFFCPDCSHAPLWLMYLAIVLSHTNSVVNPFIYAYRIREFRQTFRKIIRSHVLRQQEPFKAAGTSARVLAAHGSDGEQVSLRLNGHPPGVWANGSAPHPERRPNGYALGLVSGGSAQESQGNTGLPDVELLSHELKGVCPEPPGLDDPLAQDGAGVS", "assay": "Selectivity panel: ADORA2A", "assay_type": "cell-based"}, "Cl- Channel": {"test_system": "Cl- Channel", "assay": "Selectivity panel: Cl- channel", "assay_type": "binding", "details": "10 µM"}},
  "data": [
    {"compound": "COc1ccc(C(N)=O)cn1", "note": "[JBSNF-000088, 6-methoxynicotinamide]", "values": [
      {"measurement": "E% (agonistic), D2S", "setting": "[1]; 10 µM", "value": -3, "unit": "%"},
      {"measurement": "inhibition at 10 µM", "setting": "[1]; read-out: I% (antagonistic or inhibitory), D2S", "value": 12, "unit": "%"},
      {"measurement": "E% (agonistic), H2", "setting": "[2]; 10 µM", "value": -1, "unit": "%"},
      {"measurement": "inhibition at 10 µM", "setting": "[2]; read-out: I% (antagonistic or inhibitory), H2", "value": 6, "unit": "%"},
      {"measurement": "Cyp Inhibition", "setting": "cytochrome P450 enzymes", "value": ">20", "unit": "µM"},
      {"measurement": "IC50", "setting": "[3]", "value": 1.6, "unit": "µM"},
      {"measurement": "IC50", "setting": "[4]; Mus musculus, 3T3-L1, 24 h treatment, MNA by LC-MS/MS", "value": 6.3, "unit": "µM"},
      {"measurement": "right shift in potency, 3T3L1 cells compared to U2OS cells", "setting": "[4]; ratio of cellular IC50 values", "value": "approximately 4 fold"},
      {"measurement": "E% (agonistic), 5HT2B", "setting": "[5]; 10 µM", "value": 4, "unit": "%"},
      {"measurement": "inhibition at 10 µM", "setting": "[5]; read-out: I% (antagonistic or inhibitory), 5HT2B", "value": 13, "unit": "%"},
      {"measurement": "Metabolic stability mouse microsomes (% remaining)", "setting": "[6]", "value": 79, "unit": "%"},
      {"measurement": "E% (agonistic), CHRM3", "setting": "[7]; 10 µM", "value": -1, "unit": "%"},
      {"measurement": "inhibition at 10 µM", "setting": "[7]; read-out: I% (antagonistic or inhibitory), CHRM3", "value": 21, "unit": "%"},
      {"measurement": "E% (agonistic), ADRB2", "setting": "[8]; 10 µM", "value": 1, "unit": "%"},
      {"measurement": "inhibition at 10 µM", "setting": "[8]; read-out: I% (antagonistic or inhibitory), ADRB2", "value": 1, "unit": "%"},
      {"measurement": "E% (agonistic), OPRM1", "setting": "[9]; 10 µM", "value": -1, "unit": "%"},
      {"measurement": "inhibition at 10 µM", "setting": "[9]; OPRM1, read-out: I% (antagonistic or inhibitory), OPRM1", "value": -8, "unit": "%"},
      {"measurement": "remaining at 0.5 h", "setting": "in vitro [10]", "value": "> 70", "unit": "%"},
      {"measurement": "remaining at 0.5 h", "setting": "in vitro [11]", "value": "> 70", "unit": "%"},
      {"measurement": "shift in melting temperature (Tm), human NNMT", "setting": "human NNMT", "value": 5, "unit": "K"},
      {"measurement": "E% (agonistic), 5HT2A", "setting": "[12]; 10 µM", "value": 3, "unit": "%"},
      {"measurement": "inhibition at 10 µM", "setting": "[12]; read-out: I% (antagonistic or inhibitory), 5HT2A", "value": -9, "unit": "%"},
      {"measurement": "inhibition at 10 µM", "setting": "[13]", "value": 2, "unit": "%"},
      {"measurement": "Vd", "setting": "in vivo", "value": 0.69, "unit": "L/kg"},
      {"measurement": "bioavailability", "setting": "in vivo", "value": 43, "unit": "%"},
      {"measurement": "clearance", "setting": "in vivo", "value": 20.5, "unit": "mL/min/kg"},
      {"measurement": "clearance", "setting": "in vivo; iv", "value": 21, "unit": "mL/min/kg"},
      {"measurement": "half-life", "setting": "in vivo; iv", "value": 30, "unit": "min"},
      {"measurement": "Cmax", "setting": "in vivo; po, 10 mg/kg", "value": 3570, "unit": "ng/mL"},
      {"measurement": "Tmax", "setting": "in vivo; po, 10 mg/kg", "value": 30, "unit": "min"},
      {"measurement": "bioavailability", "setting": "in vivo; po, 10 mg/kg", "value": "~40", "unit": "%"},
      {"measurement": "half-life", "setting": "in vivo; po, 10 mg/kg", "value": 24, "unit": "min"},
      {"measurement": "I% (antagonistic or inhibitory), SK+Ca channel", "setting": "SK+Ca channel-", "value": -4, "unit": "%"},
      {"measurement": "plasma MNA levels", "setting": "plasma MNA levels; 50 mg kg^−1 orally, C57BL/6 mice, till 4 h post dosing", "value": "Significant reductions"},
      {"measurement": "reduction of plasma MNA levels", "setting": "plasma MNA levels; Discussion statement", "value": "~ 50%"},
      {"measurement": "plasma clearance as share of hepatic blood flow in mice", "setting": "[14]", "value": "approximately 25%"},
      {"measurement": "E% (agonistic), CHRM2", "setting": "[15]; 10 µM", "value": 13, "unit": "%"},
      {"measurement": "inhibition at 10 µM", "setting": "[15]; read-out: I% (antagonistic or inhibitory), CHRM2", "value": 3, "unit": "%"},
      {"measurement": "E% (agonistic), ADORA2A", "setting": "[16]; 10 µM", "value": 4, "unit": "%"},
      {"measurement": "inhibition at 10 µM", "setting": "[16]; read-out: I% (antagonistic or inhibitory), ADORA2A", "value": 2, "unit": "%"},
      {"measurement": "I% (antagonistic or inhibitory), Cl- Channel", "setting": "Cl- Channel", "value": 8, "unit": "%"}
    ]}
  ]
}
